Assay results reported in patent US5189046A, “Protein kinase C modulators” (Nova Pharmaceutical Corporation, priority 1991, dated 1993).
pIC50: −log10 of the molar value. Counter-ions that a name gives are not always drawn. Like-named read-outs stand apart in the source and are kept apart here.

Columns and labels:
[1] = test system: protein kinase C from mouse brains; assay: 3H-Phorbol dibutyrate binding (inhibition of binding of phorbol ester to protein kinase C); conditions: for pIC50: IC50 determined with program EBDA
Procedure: The ability of active compounds to inhibit the binding of phorbol ester to protein kinase C from mouse brains was measured as follows. Mouse brains were homogenized in ice-cold 50 mM Tris buffer, pH 7.4, containing 0.5 mM CaCl2, in a 15 mL Dounce homogenizer with 10 gentle strokes. The homogenate was centrifuged at 100,000×g for 1 hour at 4° C. The pellets were resuspended in 25 mL of the same ice-cold buffer and protein concentration was adjusted to 0.4 mg/mL. To each binding tube was added […] of the buffer, […] of [20-^3 H]Phorbol 12,13-dibutyrate, […] final concentration in assay, […] of test drug or displacing ligand, 50 uL of 50 mM Tris, pH 7.4 at 25° C. containing 1% bovine serum albumin, and […] enzyme preparation. Tubes were incubated at 37° C. for 30 minutes, then terminated by filtration onto Whatman GF/B glass fiber filters followed by washing with 2 mL ice-cold 50 mM Tris, pH 7.4, four times. Nonspecific binding was defined as that binding occurring in the presence of 1 mM phorbol ester. Percent inhibition was determined for each inhibitor candidate, and IC50 values were determined using the computer program "EBDA".

[2] = test system: Protein kinase A catalytic subunit; assay: Inhibition of protein kinase A phosphorylation of histone; assay type: biochemical; conditions: for PKA percent inhibition (phosphorylation of histone): percent inhibition at the maximum concentration tested 100 μM
Procedure: Protein kinase A activity was determined as follows. Protein kinase A catalytic subunit was purchased from Sigma Chemical Company. […] Incubation was at 30° C. for 5 minutes, then the assay was completed as described for protein kinase C above.

[3] = target: Protein kinase C from mouse brain; assay: Inhibition of PKC phosphorylation of histone; assay type: biochemical
Procedure: Protein kinase C from mouse brain was used in the screening protocol since it contains several isozymes of the enzyme. The tissue was prepared by homogenizing two mouse brains minus the cerebelli in 5 ml of 25 mM Tris-HCl,pH 7.4, containing 2 mM ethylenediamine tetraacetic acid (EDTA) and 1 mM ethylene glycol tetraacetic acid (EGTA), using a polytron at setting 5 for 15 seconds. The homogenate was centrifuged for 1 hour at 50,000×g at 4° C. The supernatant was used as the source of enzyme. The standard reaction mixture (250 μl) contained 20 mM Tris-HCl,pH 7.5, 10 mM Mg (CH3 COO)2, 400 μM CaCl2, 0.1 mM EGTA, […] [γ-^32 P] ATP (1200 cpm/pmol), 100 μg/ml phosphatidylserine, 10 μM histone, 1 μM phorbol 12-myristate-13-acetate, 10 μl enzyme preparation and 25 μl water or test drug. The mixture was incubated at 30° C. for 5 minutes. Mixtures were removed to an ice-bath, a 50 μl aliquot of each was added to Whatman P81 paper and washed in 10% TCA for 20 minutes. The paper was then washed with ethanol, followed by ethyl ether and finally air dryed. PKC activity was quantitated by liquid scintillation counting.

[4] = mouse brain PKC, histone, 30° C., 5 minutes, read-out: PKC IC50 (phosphorylation of histone)
[5] = text summary of Table IV, read-out: IC50, inhibition of phosphorylation by PKC

SMILES	% inhibition @ 100 μM (3H-phorbol dibutyrate binding) [1]	PKA percent inhibition (phosphorylation of histone) [2]	pIC50 [3, 4]	pIC50 [1]	pIC50 ([2]; reference standards only, read-out: PKA IC50 (phosphorylation of histone))	pIC50 [3, 5]	% inhibition @ 100 μM (3H-phorbol dibutyrate binding) ([1]; dihydrochloride)	pIC50 ([1]; dihydrochloride)
CCCCCCCCCCCCC(=O)N1CCCCC1CNC(=O)CN.Cl (stereo not shown) [2-Amino-N-([1-(1-oxotridecyl)-2-piperidinyl]methyl)ethanamide hydrochloride]	21%	0%	4.29	–	–	–	–	–
CCCCCCCCCCCCC(=O)N1CCCCC1CNC(=O)[C@@H](N)CCCN (stereo partly shown) [2.5-Diamino-N-([1-(1-oxotridecyl)-2-piperidinyl]methyl)pentanamide dihydrochloride]	–	0%	4.74	–	–	–	–	–
CCCCCCCCCCCCC(=O)N1CCCCC1CNC(=O)C1CCCNC1 (stereo not shown) [N-[([1-Oxotridecyl)-2-piperidinyl]methyl)amino]3-methyloxopiperidine hydrochloride]	34%	0%	4.54	3.80	–	–	–	–
CCCCCCCCCCCCC(=O)N1CCCCC1CNC(=O)CCN.O=C(O)/C=C/C(=O)O (stereo not shown) [3-Amino-N-([1-(1-oxotridecyl)-2-piperidinyl]methyl)propanamide fumarate]	45%	0%	4.44	3.86	–	–	–	–
CCCCCCCCCCCCC(=O)N1CCCCC1CNC(=O)[C@@H](N)Cc1c[nH]cn1 (stereo partly shown) [2-Amino-N-([1-(1-oxotridecyl)-2-piperidinyl]methyl)-3-(1H-imidazol-4-yl)propanamide dihydrochloride]	28%	0%	4.22	3.46	–	–	–	–
CCCCCCCCCCCC(=O)N1CCC[C@H]1CNC(=O)[C@@H](N)CCCCN [2.6-Diamino-N-([1-(1-oxododecyl)-2-pyrrolidinyl]methyl)hexanamide dihydrochloride]	–	0%	4.34	–	–	–	–	–
CCCCCCCCCCCCC(=O)N1CCCCC1CNC(=O)[C@@H](N)CCC(N)=O (stereo partly shown) [4-Amino-5-oxo-5-[([1-(1-oxotridecyl)-2-piperidinyl]methyl)amino]pentanamide hydrochloride]	17%	0%	4.14	–	–	–	–	–
CC1CNCCN1S(=O)(=O)c1cccc2cnccc12 (stereo not shown) [Example H-7, reference compound]	–	–	5.05	–	4.55	–	–	–
CCCCCCCCCCCCC(=O)N1CCCCC1CNC(=O)[C@@H](N)CC(=O)OCc1ccccc1 (stereo partly shown) [3-Amino-4-oxo-4-[([1-(1-oxotridecyl)-2-piperidinyl]methyl)amino]butanoic acid phenylmethyl ester hydrochloride]	2%	0%	4.04	–	–	4.04	–	–
CCCCCCCCCCCCC/C=C/[C@@H](O)[C@@H](N)CO [Sphingosine, reference compound]	–	88%	4.82	–	–	–	–	–
CCCCCCCCCCCCC(=O)N1CCCCC1CNC(=O)[C@@H](N)CCCCN (stereo partly shown) [2,6-diamino-N-([1-(1-oxotridecyl)-2-piperidinyl]methyl)hexan] [2,6-Diamino-N-([1-(1-oxotridecyl)-2-piperidinyl]methyl)hexanamide dihydrochloride]	–	0%	4.89	–	–	4.89	22%	3.72
CCCCCCCCCCCCC(=O)N1CCCCC1CNC(=O)[C@H](C)N (stereo partly shown) [2-Amino-N-([1-(1-oxotridecyl)-2-piperidinyl]methyl)propanamide hydrochloride]	49%	0%	4.28	–	–	–	–	–
CCCCCCCCCCCCC(=O)N1CCCCC1CNC(=O)[C@@H](N)CCCCN (stereo partly shown) [2,6-diamino-N-([1-(1-oxotridecyl)-2-piperidinyl]methylhexana] [2,6-diamino-N-([1-(1-oxotridecyl)-2-piperidinyl]methylhexanamidedihydrochloride]	–	–	–	–	–	–	47%	3.88
CCCCCCCCCCCCC(=O)N1CCCCC1CNC(=O)[C@@H](N)CO (stereo partly shown) [2-Amino-3-hydroxy-N-([1-(1-oxotridecyl)-2-piperidinyl]methyl)propanamide hydrochloride]	9%	0%	4.36	–	–	–	–	–
